Source: US20260285850A1, “SUBSTITUTED OXAZOLIDINONES AND IMIDAZOLINONES AS HERBICIDES” (FMC CORPORATION, priority 2023, published 2026)

How the values were obtained:
Assay type in all cases: in vivo
[1] = tested on: barnyardgrass (Echinochloa crus-galli); assay: Test A preemergence soil spray, visual injury rating 0-100; conditions: 10 days
Summary of the method: (§1)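 Compound in a non-phytotoxic, surfactant-containing solvent is applied either as a directed soil spray before seedlings emerge or onto emerged plants 2-10 cm tall; pots hold a loam-sand blend. Plants grow 10 days under greenhouse conditions and are rated by eye against untreated controls (0 no effect, 100 complete control).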

[2] = tested on: blackgrass (Alopecurus myosuroides); assay: as above; conditions: 10 days
Summary of the method: as §1

corn (Zea mays) [3] = assay: as above; conditions: 10 days
Summary of the method: as §1

[4] = tested on: green foxtail (Setaria viridis); assay: as above; conditions: 10 days
Summary of the method: as §1

kochia (Bassia scoparia) [5] = assay: as above; conditions: 10 days
Summary of the method: as §1

[6] = tested on: oat, wild (wild oat, Avena fatua); assay: as above; conditions: 10 days
Summary of the method: as §1

[7] = tested on: palmer (palmer amaranth, palmer pigweed, Amaranthus palmeri); assay: as above; conditions: 10 days
Summary of the method: as §1

[8] = tested on: ragweed (common ragweed, Ambrosia artemisiifolia); assay: as above; conditions: 10 days
Summary of the method: as §1

[9] = tested on: ryegrass, Italian (italian ryegrass, Lolium multiflorum); assay: as above; conditions: 10 days
Summary of the method: as §1

soybean (Glycine max) [10] = assay: as above; conditions: 10 days
Summary of the method: as §1

[11] = tested on: wheat (Triticum aestivum); assay: as above; conditions: 10 days
Summary of the method: as §1

[12] = tested on: barnyardgrass (Echinochloa crus-galli); assay: Test A postemergence application, visual injury rating 0-100
Summary of the method: as §1

[13] = tested on: blackgrass (Alopecurus myosuroides); assay: as above
Summary of the method: as §1

corn (Zea mays) [14] = assay: as above
Summary of the method: as §1

[15] = tested on: green foxtail (Setaria viridis); assay: as above
Summary of the method: as §1

[16] = tested on: horseweed (Erigeron canadensis); assay: as above
Summary of the method: as §1

kochia (Bassia scoparia) [17] = assay: as above
Summary of the method: as §1

[18] = tested on: oat, wild (wild oat, Avena fatua); assay: as above
Summary of the method: as §1

[19] = tested on: palmer (palmer amaranth, palmer pigweed, Amaranthus palmeri); assay: as above
Summary of the method: as §1

[20] = tested on: ragweed (common ragweed, Ambrosia artemisiifolia); assay: as above
Summary of the method: as §1

[21] = tested on: ryegrass, Italian (italian ryegrass, Lolium multiflorum); assay: as above
Summary of the method: as §1

soybean (Glycine max) [22] = assay: as above
Summary of the method: as §1

[23] = tested on: wheat (Triticum aestivum); assay: as above
Summary of the method: as §1

[24] = tested on: barnyardgrass (Echinochloa crusgalli); assay: Test B flooded paddy test, visual plant response rating 0-100; conditions: 250 g ai/ha, Flood, applied to paddy water, evaluated after 13 days
Summary of the method: (§2)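 Treatment occurs at the 2-leaf stage by adding compound to floodwater standing 3 cm above the soil, a level kept for the whole test. Plants stay in the greenhouse 13 days before visual comparison with controls.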

[25] = tested on: ducksalad (Heteranthera limosa); assay: as above; conditions: 250 g ai/ha, Flood, applied to paddy water, evaluated after 13 days
Summary of the method: as §2

rice (Oryza sativa) = assay: as above; conditions: 250 g ai/ha, Flood, applied to paddy water, evaluated after 13 days
Summary of the method: as §2

[26] = tested on: sedge, umbrella (small-flower umbrella sedge, Cyperus difformis); assay: as above; conditions: 250 g ai/ha, Flood, applied to paddy water, evaluated after 13 days
Summary of the method: as §2

[27] = 62 g ai/ha, 0 = no effect, 100 = complete control
[28] = 62 g ai/ha, postemergence, 10 days, 0 = no effect, 100 = complete control
[29] = Postemergence, 16 g ai/ha, greenhouse 10 days, 0 no effect, 100 complete control

Structure (SMILES): COC(=O)COC(=O)C1=CCC(NC(=O)C2(C)CN(c3cc(Cl)cc(Cl)c3)C(=O)O2)C1 (centres unmarked) [Compound 110]
- Barnyardgrass plant response rating ([1]; 16 g ai/ha, 0 to 100 scale): 50
- Barnyardgrass plant response rating (0-100) [1, 27]: 100
- Blackgrass plant response rating ([2]; 16 g ai/ha, 0 to 100 scale): 0
- Blackgrass plant response rating (0-100) [2, 27]: 30
- Corn plant response rating (corn (Zea mays) [3]; 16 g ai/ha, 0 to 100 scale): 0
- Corn plant response rating (0-100) (corn (Zea mays) [3]; [27]): 30
- Foxtail, Green plant response rating ([4]; 16 g ai/ha, 0 to 100 scale): 0
- Foxtail, Green plant response rating (0-100) [4, 27]: 90
- Kochia plant response rating (kochia (Bassia scoparia) [5]; 16 g ai/ha, 0 to 100 scale): 0
- Kochia plant response rating (0-100) (kochia (Bassia scoparia) [5]; [27]): 0
- Oat, Wild plant response rating ([6]; 16 g ai/ha, 0 to 100 scale): 0
- Oat, Wild plant response rating (0-100) [6, 27]: 0
- Pigweed, Palmer plant response rating ([7]; 16 g ai/ha, 0 to 100 scale): 80
- Pigweed, Palmer plant response rating (0-100) [7, 27]: 100
- Ragweed plant response rating ([8]; 16 g ai/ha, 0 to 100 scale): 0
- Ragweed plant response rating (0-100) [8, 27]: 0
- Ryegrass, Italian plant response rating ([9]; 16 g ai/ha, 0 to 100 scale): 0
- Ryegrass, Italian plant response rating (0-100) [9, 27]: 60
- Soybean plant response rating (soybean (Glycine max) [10]; 16 g ai/ha, 0 to 100 scale): 10
- Soybean plant response rating (0-100) (soybean (Glycine max) [10]; [27]): 0
- Wheat plant response rating ([11]; 16 g ai/ha, 0 to 100 scale): 40
- Wheat plant response rating (0-100) [11, 27]: 80
- Barnyardgrass plant response rating (0-100) [12, 28]: 100
- Barnyardgrass plant response rating (0 to 100 scale) [12, 29]: 90
- Blackgrass plant response rating (0-100) [13, 28]: 100
- Blackgrass plant response rating (0 to 100 scale) [13, 29]: 80
- Corn plant response rating (0-100) (corn (Zea mays) [14]; [28]): 100
- Corn plant response rating (0 to 100 scale) (corn (Zea mays) [14]; [29]): 100
- Foxtail, Green plant response rating (0-100) [15, 28]: 90
- Foxtail, Green plant response rating (0 to 100 scale) [15, 29]: 90
- Horseweed plant response rating (0-100) [16, 28]: 80
- Horseweed plant response rating (0 to 100 scale) [16, 29]: 70
- Kochia plant response rating (0-100) (kochia (Bassia scoparia) [17]; [28]): 90
- Kochia plant response rating (0 to 100 scale) (kochia (Bassia scoparia) [17]; [29]): 90
- Oat, Wild plant response rating (0-100) [18, 28]: 30
- Oat, Wild plant response rating (0 to 100 scale) [18, 29]: 20
- Pigweed, Palmer plant response rating (0-100) [19, 28]: 100
- Pigweed, Palmer plant response rating (0 to 100 scale) [19, 29]: 90
- Ragweed plant response rating (0-100) [20, 28]: 80
- Ragweed plant response rating (0 to 100 scale) [20, 29]: 50
- Ryegrass, Italian plant response rating (0-100) [21, 28]: 70
- Ryegrass, Italian plant response rating (0 to 100 scale) [21, 29]: 50
- Soybean plant response rating (0-100) (soybean (Glycine max) [22]; [28]): 70
- Soybean plant response rating (0 to 100 scale) (soybean (Glycine max) [22]; [29]): 30
- Wheat plant response rating (0-100) [23, 28]: 90
- Wheat plant response rating (0 to 100 scale) [23, 29]: 50
- Plant response rating, Barnyardgrass (0 to 100 scale, 0 is no effect and 100 is complete control) [24]: 60
- Plant response rating, Ducksalad (0 to 100 scale, 0 is no effect and 100 is complete control) [25]: 95
- Plant response rating, Rice (0 to 100 scale, 0 is no effect and 100 is complete control) (rice (Oryza sativa)): 40
- Plant response rating, Sedge, Umbrella (0 to 100 scale, 0 is no effect and 100 is complete control) [26]: 98
